{
  "source": "patent US20120065614A1",
  "about": "(UNIVERSITY OF NORTH TEXAS, priority 2010, published 2012)",
  "key": {"[1]": {"experiment": "Steady-state photoluminescence spectra (emission/excitation maxima)", "assay_type": "physicochemical", "experimental": "(§1) Photoluminescence characterization: All photoluminescence studies were carried with the PTI spectrofluorometer described below. For titrations, 2.5-mL aliquots were placed in the quartz cuvette and 0.1 mL of gel was added at every titration point with magnetic stirring. Titration data were plotted as I/Io vs. volume of gel added (where I=intensity of sample after addition of gel and 1o=intensity of pure aqueous gold phosphor solution). Lifetime data were analyzed using a xenon flash lamp or N2 laser systems for both the sample and a scatterer solution used to generate the instrument response function (IRF) used for deconvolution.\nSpectroscopic equipment: Steady-state luminescence spectra were acquired with a PTI QuantaMaster Model QM-4 scanning spectrofluorometer equipped with a 75-watt xenon lamp. The UVN is absorption spectra were measured at 1-nm resolution on either a diode array spectrometer (Hewlett-Packard, model 8543) or a Perkin-Elmer Lambda-900 double-beam UVN is/NIR absorption spectrophotometer."}, "[2]": {"experiment": "Time-resolved phosphorescence lifetime", "assay_type": "physicochemical", "experimental": "as §1"}, "[3]": {"conditions": "cited from earlier work; for emission band maximum: literature"}, "[4]": {"conditions": "solution, literature results, fitting error not given; cited from earlier work"}, "[5]": {"conditions": "cited from earlier work"}},
  "note": "Where two headings read alike, the source gives them in different places.",
  "data": [
    {"smiles": "O=S(=O)([O-])c1cccc([PH](c2cccc(S(=O)(=O)[O-])c2)(c2cccc(S(=O)(=O)[O-])c2)[Au]([PH](c2cccc(S(=O)(=O)[O-])c2)(c2cccc(S(=O)(=O)[O-])c2)c2cccc(S(=O)(=O)[O-])c2)[PH](c2cccc(S(=O)(=O)[O-])c2)(c2cccc(S(=O)(=O)[O-])c2)c2cccc(S(=O)(=O)[O-])c2)c1", "note": "[Na8[Au(TPPTS)3], tris[tris(3,3′,3″-trisulfonatophenyl)phosphine]aurate(I)]", "values": [
      {"measurement": "excitation maximum", "setting": "[1]; aqueous solution of 0.001M", "result": 292, "unit": "nm"},
      {"measurement": "emission maximum", "setting": "[1]; solid state", "result": 500, "unit": "nm"},
      {"measurement": "excitation maximum", "setting": "[1]; solid state", "result": 356, "unit": "nm"},
      {"measurement": "PL, soln. (RT), emission, corrected", "setting": "[1]; solution, RT, Corr.", "result": "nm exc.; 525 nm em."},
      {"measurement": "PL, soln. (RT), excitation, corrected", "setting": "[1]; solution, RT, Corr.", "result": 285, "unit": "nm"},
      {"measurement": "PL, soln. (RT), emission, uncorrected", "setting": "[1]; solution, RT, Uncorr.", "result": 510, "unit": "nm"},
      {"measurement": "PL, soln. (RT), excitation, uncorrected", "setting": "[1]; solution, RT, Uncorr.", "result": "Uncorr.: 296 nm exc.;"},
      {"measurement": "phosphorescence lifetime", "setting": "[2]; after addition of PNIPAM hydrogels to the aqueous solution", "result": 2.6, "unit": "μs"},
      {"measurement": "phosphorescence lifetime", "setting": "[2]; aqueous solution before addition of PNIPAM hydrogels", "result": 1.4, "unit": "μs"},
      {"measurement": "τ, soln. (RT)", "setting": "[2]; aqueous solution, RT", "result": "2.04 ± 0.02 μs (FIGS."},
      {"measurement": "emission band maximum", "setting": "[3]; solid state at 77° K", "result": 486, "unit": "nm"},
      {"measurement": "emission band maximum", "setting": "[3]; solid state at room temperature", "result": 494, "unit": "nm"},
      {"measurement": "PL, soln. (RT), emission", "setting": "[3]; solution, RT, literature results (broad)", "result": 513, "unit": "nm"},
      {"measurement": "PL, soln. (RT), excitation", "setting": "[3]; solution, RT, literature results", "result": 293, "unit": "nm"},
      {"measurement": "τ, soln. (RT)", "setting": "[4]", "result": "1.9 μs (fitting error not given)"},
      {"measurement": "water solubility", "setting": "[5]", "result": "highly water soluble"}
    ]}
  ]
}
